Data on 6 compounds can be found in patent publication US20190169218A1, “AMPHIPATHIC COMPOUND HAVING NOVEL PENTA-SACCHARIDE HYDROPHILIC GROUP AND USE THEREOF” (Industry-University Cooperation Foundation Hanyang …, priority 2016, published 2019).

Series [1] can be described thus: critical micelle concentration (CMC) by hydrophobic fluorescent staining with diphenylhexatriene (DPH). In kind it is physicochemical. From the text: Methods of measuring CMC are not particularly limited, and methods widely known in the art may be used. For example, a fluorescence staining method using diphenylhexatriene (DPH) may be used.
To characterize PSAs of Preparation Examples 1 to 3 synthesized according to the synthetic method of Example 1; PSEs of Preparation Examples 4 to 7 synthesized according to the synthetic method of Example 2; TPS-Es and TPS-ELs of Preparation Examples 8 to 14 synthesized according to the synthetic method of Example 3; and TPS-As of Preparation Examples 15 to 17 synthesized according to the synthetic method of Example 4, the critical micellar concentrations (CMCs) of PSAs, PSEs and TPSs and the hydrodynamic radii (Rh) of formed micelles were measured.
(§1) Specifically, critical micellar concentrations (CMCs) were measured using hydrophobic fluorescent staining and diphenylhexatriene (DPH), and the hydrodynamic radii (Rh) of micelles formed by each compound at a concentration of 1.0 wt % were measured using dynamic light scattering (DLS). The results were compared with results obtained from an existing amphipathic molecule (detergent), DDM, and are shown in Table 1.

Series [2] is described as follows: hydrodynamic radius of micelles by dynamic light scattering (DLS). The class given is physicochemical. As to conditions: compound at 1.0 wt %. As to the method: Methods of measuring the radius of micelles are not particularly limited, and methods widely known in the art may be used. For example, dynamic light scattering (DLS) may be used.
as §1
When measuring, each of PSAs, PSEs and TPSs was used at a concentration of 1.0 wt %.

For series [3], the system named is leucine transporter (LeuT). Kind of series: LeuT stability, [3H]-Leu binding by scintillation proximity assay (SPA). Conditions: CMC+0.2 wt %, room temperature, 12 days. The class given is biochemical, Aquifex aeolicus. The protocol:
The ability of PSAs, PSEs or TPSs (TPS-A/E/ELs) to stabilize leucine transporter (LeuT), a membrane protein, was measured. LeuT purified by DDM was mixed with a solution containing each amphipathic compound, and the mixture was incubated at room temperature for 12 days. The activity of LeuT proteins was measured by scintillation proximity assay (SPA) using a ligand ([^3H]-Leu), and the concentration of PSAs, PSEs, TPSs or DDM was (a) CMC+0.04 wt %, or (b) CMC+0.2 wt %.
Specifically, LeuT stability measurement was performed in the following manner. According to the results of Example 6, PSA-C10, PSA-C11, PSE-C9, PSE-C11, and PSE-C13 were selected as the amphipathic compounds of PSAs and PSEs except for PSA-C9, and wild type leucine transporter (LeuT) was purified from Aquifex aeolicus using TPS-As, TPS-Es and TPS-EL, according to the method described in G. Deckert et al. (Nature 1998, 392, 353-358.). E. coli C41 (DE3) was transformed with a pET16b plasmid containing a gene construct encoding C-terminal 8×His-tagged LeuT, and thus LeuT was expressed in the form of a fusion protein having 8×His tags at the C-terminus in the transformed E. coli C41 (the expression plasmid was provided by Dr. E. Gouaux, Vollum Institute, Portland, Oreg., USA). Briefly, bacterial membranes containing LeuT were treated with 1.0 wt % DDM, and proteins were bound to Ni^2+-NTA resin (Life Technologies, Denmark). LeuT bound to the resin was eluted using a buffer solution containing 20 mM Tris-HCl (pH 8.0), 1 mM NaCl, 199 mM KCl, 0.05% DDM and 300 mM imidazole. Next, about 1.5 mg/mL of protein stock was diluted 10-fold in an equivalent buffer supplemented with TPS-As, TPS-Es, TPS-ELs, PSAs/PSEs (PSA-C10, PSA-C11, PSE-C9, PSE-C11 and PSE-C13) or DDM (control group) to a final concentration of CMC+0.04 wt % or CMC+0.2 wt % without DDM and imidazole. The protein samples were stored at room temperature and centrifuged at designated times. Protein activity was determined by measuring the degree of binding to [^3H]-Leu using scintillation proximity assay (SPA) (M. Quick et al., Proc. Natl, Acad. Sci. U.S.A. 2007, 104, 3603-3608.). Briefly, SPA was performed with 5 μL of each protein sample dissolved in a buffer containing 450 mM NaCl and each test compound. The SPA reaction was performed in the presence of 20 nM [^3H]-Leu and copper chelate (His-Tag) YSi beads (both were purchased from PerkinElmer, Denmark). The degree of binding to [^3H]-Leu was measured using a MicroBeta liquid scintillation counter (PerkinElmer).

The target of series [4] is T1, human β2 adrenergic receptor (β2AR) (Homo sapiens, UniProt P07550).
T1 construct: Flag; made in house
T1 sequence (P07550 whole entry): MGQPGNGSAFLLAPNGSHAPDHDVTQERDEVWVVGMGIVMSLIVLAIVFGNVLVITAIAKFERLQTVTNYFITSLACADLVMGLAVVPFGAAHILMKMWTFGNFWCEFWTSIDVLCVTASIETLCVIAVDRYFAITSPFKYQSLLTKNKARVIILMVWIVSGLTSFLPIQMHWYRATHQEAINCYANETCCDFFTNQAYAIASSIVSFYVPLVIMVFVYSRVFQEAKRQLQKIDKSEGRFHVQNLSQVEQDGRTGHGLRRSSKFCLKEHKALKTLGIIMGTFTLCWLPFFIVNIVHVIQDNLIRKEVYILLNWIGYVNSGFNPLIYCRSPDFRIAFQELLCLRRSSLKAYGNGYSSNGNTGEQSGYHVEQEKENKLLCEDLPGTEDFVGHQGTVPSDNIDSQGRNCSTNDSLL
Kind of series: β2AR activity by [3H]-dihydroalprenolol radioactive ligand binding assay. The class given is biochemical. Conditions: 3 or 5 days at room temperature. The protocol: The membrane protein stabilizing ability of receptors (mBBr-β2ARs) solubilized in PSAs or PSEs was evaluated by measuring the binding activity of the receptors to [^3H]-dihydroalprenolol ([^3H]-DHA).
Specifically, radioactive ligand binding assay was performed as follows. β2ARs purified with 0.1 wt % DDM was concentrated to about 10 mg/mL (approximately 200 μM). β2ARs purified with DDM were used to prepare a master binding mixture containing 10 nM [^3H]-dihydroalprenolol (DHA), which was dissolved in 0.2 wt % of DDM, PSA or PSE and supplemented with 0.5 mg/mL BSA. At a concentration of 0.2 pmol, the activity of the receptors purified with the amphipathic compounds was monitored at regular intervals over a 4-day incubation period. Protein samples were incubated on ice for 2 days and then at room temperature for 2 days. Receptor activity was measured by binding assay for dissolved radioactive ligands. The receptors purified with DDM or a novel formulation (PSA-C11, PSE-C11 or PSE-C13) were incubated with 10 nM [^3H]-DHA at room temperature for 30 minutes. The mixture was loaded onto a G-50 column, a solution passed through the column was collected in 1 mL of a binding buffer (100 mM NaCl and 20 mM HEPES (pH 7.5) supplemented with 0.5 mg/mL BSA and 20×CMC amphipathic compounds), and 15 mL of a scintillation fluid was added to the solution. Receptor-bound [^3H]-DHA was measured using a scintillation counter (Beckman). Non-specific binding of [^3H]-DHA was measured by adding 1 μM alprenolol (Sigma) to the same reaction mixture. The binding degree of the receptors to [^3H]-DHA was represented by a column graph.
The ability of TPSs (TPS-As, TPS-Es and TPS-ELs) to stabilize the structures of human β2 adrenergic receptors (β2ARs) and G protein-coupled receptors (GPCRs) was measured. That is, DDM-purified receptors were diluted with a buffer solution containing only each of the TPSs without cholesteryl hemisuccinate (CHS) or a buffer solution containing CHS and DDM. The final concentration of the compounds was CMC+0.2wt %, and the binding activity of the receptors to ligands was evaluated by measuring the degree of binding of the receptors to [^3H]-dihydroalprenolol ([^3H]-DHA).
Specifically, radioactive ligand binding assay was performed as follows. β2ARs were purified with 0.1 wt % DDM (D. M. Rosenbaum et al., Science, 2007, 318, 1266-1273.) and was concentrated to about 10 mg/mL (approximately 200 μM). β2ARs purified with DDM were used to prepare a master binding mixture containing 10 nM [^3H]-dihydroalprenolol (DHA), which was dissolved in 0.2% amphipathic compounds (DDM or TPSs) and supplemented with 0.5 mg/mL BSA. The activity of the receptors purified with the amphipathic compounds was monitored at regular intervals over a 3- to 5-day incubation period. The receptors purified with DDM or TPSs were incubated with 10 nM [^3H]-DHA at room temperature for 30 minutes. The mixture was loaded onto a G-50 column, a solution passed through the column was collected in 1 mL of a binding buffer (100 mM NaCl and 20 mM HEPES (pH 7.5) supplemented with 0.5 mg/mL BSA and 20×CMC of each amphipathic compound), and 15 mL of a scintillation fluid was added to the solution. Receptor-bound [^3H]-DHA was measured using a scintillation counter (Beckman). The binding degree of the receptors to [^3H]-DHA was represented by a column graph.

For the compound `CCCCCCCOCC(COCCCCCCC)O[C@@H]1OC(CO[C@@H]2OC(CO)[C@@H](O)C(O)C2O)[C@@H](O[C@@H]2OC(CO)[C@@H](O)C(O)C2O)C(O[C@@H]2OC(CO)[C@@H](O)C(O)C2O)C1O[C@@H]1OC(CO)[C@@H](O)C(O)C1O` (some centres unmarked) [PSE-C7], in series [1], the “CMC” value was about 0.27 mM and the “CMC (wt %)” value was about 0.0300 wt %. Further, the “Rh (nm), hydrodynamic radius of micelles” value in series [2] is 2.66 ± 0.04 nm.
Turning to `CCCCCCCOCC(COCCCCCCC)(COCCCCCCC)CO[C@@H]1OC(CO[C@@H]2OC(CO)[C@@H](O)C(O)C2O)[C@@H](O[C@@H]2OC(CO)[C@@H](O)C(O)C2O)C(O[C@@H]2OC(CO)[C@@H](O)C(O)C2O)C1O[C@@H]1OC(CO)[C@@H](O)C(O)C1O` (some centres unmarked) [TPS-E7], in series [1], the “CMC” value is recorded as about 0.012 mM and the “CMC (wt %)” value is about 0.0015 wt %. Moreover, the “Rh (nm), hydrodynamic radius of micelles” value in series [2] was 13.0 ± 0.8 nm.
On to `CCCCCCCCCCC(CCCCCCCCCC)(CO[C@@H]1O[C@H](CO)[C@@H](O[C@H]2O[C@H](CO)[C@@H](O)[C@H](O)[C@H]2O)[C@H](O)[C@H]1O)CO[C@@H]1O[C@H](CO)[C@@H](O[C@H]2O[C@H](CO)[C@@H](O)[C@H](O)[C@H]2O)[C@H](O)[C@H]1O` [MNG-3, reference compound], for which the “LeuT transporter activity retained after 12 days of incubation” value in series [3] was determined as 40%.
`CCCCCCOCC(COCCCCCC)(COCCCCCC)CO[C@@H]1OC(CO[C@@H]2OC(CO)[C@@H](O)C(O)C2O)[C@@H](O[C@@H]2OC(CO)[C@@H](O)C(O)C2O)C(O[C@@H]2OC(CO)[C@@H](O)C(O)C2O)C1O[C@@H]1OC(CO)[C@@H](O)C(O)C1O` (some centres unmarked) [TPS-E6]: in series [1], the “CMC” value is about 0.020 mM and the “CMC (wt %)” value is given as about 0.0024 wt %. Also, the “Rh (nm), hydrodynamic radius of micelles” value in series [2] was 2.9 ± 0.05 nm.
Consider `CCCCCCCCCOCC(COCCCCCCCCC)(COCCCCCCCCC)CO[C@@H]1OC(COCCCO[C@@H]2OC(CO)[C@@H](O)C(O)C2O)[C@@H](OCCCO[C@@H]2OC(CO)[C@@H](O)C(O)C2O)C(OCCCO[C@@H]2OC(CO)[C@@H](O)C(O)C2O)C1OCCCO[C@@H]1OC(CO)[C@@H](O)C(O)C1O` (some centres unmarked) [TPS-E9L], for which, in series [1], the “CMC” value was about 0.004 mM and the “CMC (wt %)” value was about 0.0006 wt %. Besides, in series [2], the “Rh (nm), hydrodynamic radius of micelles” value is 4.6 ± 0.18 nm. In series [4], the “long-term β2AR activity ([3H]-DHA binding)” value was “significantly better than that of DDM”.
Regarding `CCCCCCCCOCC(COCCCCCCCC)(COCCCCCCCC)CO[C@@H]1OC(COCCCO[C@@H]2OC(CO)[C@@H](O)C(O)C2O)[C@@H](OCCCO[C@@H]2OC(CO)[C@@H](O)C(O)C2O)C(OCCCO[C@@H]2OC(CO)[C@@H](O)C(O)C2O)C1OCCCO[C@@H]1OC(CO)[C@@H](O)C(O)C1O` (some centres unmarked) [TPS-E8L], in series [1], the “CMC” value is about 0.006 mM and the “CMC (wt %)” value is listed as about 0.0009 wt %. In addition, in series [2], the “Rh (nm), hydrodynamic radius of micelles” value stood at 4.5 ± 0.39 nm.
